Measured values published in ChEMBL document CHEMBL4725377, “The neuronal calcium ion channel activity of constrained analogues of MONIRO-1” (Bioorg Med Chem, 2020).

Experiments:
[1] = biological target: Voltage-dependent T-type calcium channel subunit alpha-1H (Homo sapiens, UniProt O95180); assay: Inhibition of human T type calcium channel Cav3.2 expressed in HEK-293T cells assessed as calcium influx by FRIPR assay; type: cell-based
[2] = biological target: T1, Voltage-dependent N-type calcium channel subunit alpha-1B (Homo sapiens, UniProt Q00975); assay: Inhibition of human N type calcium channel Cav2.2 endogenously expressed in SH-SY5Y cells assessed as calcium influx by FRIPR assay; type: cell-based
[3] = Stability of the compound in Sprague-Dawley rat plasma assessed as half-life measured by RP-HPLC; type: ADME, cell-free
[4] = biological target: T1, Voltage-dependent N-type calcium channel subunit alpha-1B; assay: Inhibition of human Cav2.2 expressed in HEK293 cells by whole cell patch clamp electrophysiology method; type: cell-based
[5] = Inhibition of human Cav3 expressed in HEK293 cells by whole cell patch clamp electrophysiology method; type: cell-based

T1 sequence (Q00975 whole entry): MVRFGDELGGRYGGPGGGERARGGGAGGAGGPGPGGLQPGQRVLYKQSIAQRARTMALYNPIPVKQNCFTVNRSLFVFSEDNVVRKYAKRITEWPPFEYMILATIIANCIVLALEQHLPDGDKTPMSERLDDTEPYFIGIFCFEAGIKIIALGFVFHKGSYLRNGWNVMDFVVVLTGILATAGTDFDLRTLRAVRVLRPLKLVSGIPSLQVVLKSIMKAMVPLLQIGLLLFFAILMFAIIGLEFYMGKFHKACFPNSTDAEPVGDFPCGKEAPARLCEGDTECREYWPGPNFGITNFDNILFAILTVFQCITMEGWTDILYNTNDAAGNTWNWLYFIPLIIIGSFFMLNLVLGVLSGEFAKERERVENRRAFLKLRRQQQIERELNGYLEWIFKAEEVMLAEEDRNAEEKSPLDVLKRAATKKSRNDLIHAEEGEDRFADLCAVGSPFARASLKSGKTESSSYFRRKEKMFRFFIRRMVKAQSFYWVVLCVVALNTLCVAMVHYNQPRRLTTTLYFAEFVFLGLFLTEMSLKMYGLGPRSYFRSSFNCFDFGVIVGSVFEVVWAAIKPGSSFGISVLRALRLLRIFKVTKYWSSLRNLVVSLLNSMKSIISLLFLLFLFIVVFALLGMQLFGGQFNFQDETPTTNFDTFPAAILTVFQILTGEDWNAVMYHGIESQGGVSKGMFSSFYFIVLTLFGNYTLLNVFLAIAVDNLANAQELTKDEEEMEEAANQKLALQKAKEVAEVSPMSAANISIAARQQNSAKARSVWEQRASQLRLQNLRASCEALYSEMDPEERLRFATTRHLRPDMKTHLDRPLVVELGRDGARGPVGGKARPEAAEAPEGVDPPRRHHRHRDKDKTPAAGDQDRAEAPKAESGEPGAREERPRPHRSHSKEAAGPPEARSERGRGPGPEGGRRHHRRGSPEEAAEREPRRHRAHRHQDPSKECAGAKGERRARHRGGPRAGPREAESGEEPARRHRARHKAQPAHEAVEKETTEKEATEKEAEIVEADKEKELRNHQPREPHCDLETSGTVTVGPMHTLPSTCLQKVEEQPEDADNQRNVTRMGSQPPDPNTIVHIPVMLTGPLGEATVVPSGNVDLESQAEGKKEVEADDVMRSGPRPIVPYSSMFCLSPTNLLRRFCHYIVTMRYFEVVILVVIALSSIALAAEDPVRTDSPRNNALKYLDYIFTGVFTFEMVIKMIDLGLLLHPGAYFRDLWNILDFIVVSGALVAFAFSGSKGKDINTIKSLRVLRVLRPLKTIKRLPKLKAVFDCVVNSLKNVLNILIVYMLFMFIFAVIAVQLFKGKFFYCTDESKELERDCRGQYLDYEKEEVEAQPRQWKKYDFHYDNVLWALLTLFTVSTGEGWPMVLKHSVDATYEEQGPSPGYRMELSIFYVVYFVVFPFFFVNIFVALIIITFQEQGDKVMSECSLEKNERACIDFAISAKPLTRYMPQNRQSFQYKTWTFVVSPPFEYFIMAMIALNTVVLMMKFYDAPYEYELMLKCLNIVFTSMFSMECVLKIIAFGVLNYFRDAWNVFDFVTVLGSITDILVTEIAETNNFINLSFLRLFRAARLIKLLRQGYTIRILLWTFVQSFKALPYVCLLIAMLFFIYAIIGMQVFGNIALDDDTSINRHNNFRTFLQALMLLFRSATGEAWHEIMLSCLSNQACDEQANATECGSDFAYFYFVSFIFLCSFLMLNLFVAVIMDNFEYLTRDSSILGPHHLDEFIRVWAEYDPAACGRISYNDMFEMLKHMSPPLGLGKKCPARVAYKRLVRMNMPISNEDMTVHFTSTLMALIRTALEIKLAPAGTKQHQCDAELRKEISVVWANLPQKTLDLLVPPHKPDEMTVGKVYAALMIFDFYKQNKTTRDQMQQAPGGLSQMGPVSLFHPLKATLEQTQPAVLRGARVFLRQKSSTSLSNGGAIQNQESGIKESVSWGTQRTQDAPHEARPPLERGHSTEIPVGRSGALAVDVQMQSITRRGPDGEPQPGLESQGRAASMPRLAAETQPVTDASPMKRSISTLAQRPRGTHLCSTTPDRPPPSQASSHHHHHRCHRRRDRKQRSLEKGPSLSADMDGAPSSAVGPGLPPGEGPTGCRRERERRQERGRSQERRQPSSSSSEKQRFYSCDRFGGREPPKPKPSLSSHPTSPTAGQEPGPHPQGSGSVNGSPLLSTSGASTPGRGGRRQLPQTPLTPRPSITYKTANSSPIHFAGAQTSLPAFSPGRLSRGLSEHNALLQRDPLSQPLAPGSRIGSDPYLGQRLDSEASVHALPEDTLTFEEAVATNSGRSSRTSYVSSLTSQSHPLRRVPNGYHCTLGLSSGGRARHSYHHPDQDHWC
Voltage-dependent T-type calcium channel subunit alpha-1H, sequence (O95180 whole entry): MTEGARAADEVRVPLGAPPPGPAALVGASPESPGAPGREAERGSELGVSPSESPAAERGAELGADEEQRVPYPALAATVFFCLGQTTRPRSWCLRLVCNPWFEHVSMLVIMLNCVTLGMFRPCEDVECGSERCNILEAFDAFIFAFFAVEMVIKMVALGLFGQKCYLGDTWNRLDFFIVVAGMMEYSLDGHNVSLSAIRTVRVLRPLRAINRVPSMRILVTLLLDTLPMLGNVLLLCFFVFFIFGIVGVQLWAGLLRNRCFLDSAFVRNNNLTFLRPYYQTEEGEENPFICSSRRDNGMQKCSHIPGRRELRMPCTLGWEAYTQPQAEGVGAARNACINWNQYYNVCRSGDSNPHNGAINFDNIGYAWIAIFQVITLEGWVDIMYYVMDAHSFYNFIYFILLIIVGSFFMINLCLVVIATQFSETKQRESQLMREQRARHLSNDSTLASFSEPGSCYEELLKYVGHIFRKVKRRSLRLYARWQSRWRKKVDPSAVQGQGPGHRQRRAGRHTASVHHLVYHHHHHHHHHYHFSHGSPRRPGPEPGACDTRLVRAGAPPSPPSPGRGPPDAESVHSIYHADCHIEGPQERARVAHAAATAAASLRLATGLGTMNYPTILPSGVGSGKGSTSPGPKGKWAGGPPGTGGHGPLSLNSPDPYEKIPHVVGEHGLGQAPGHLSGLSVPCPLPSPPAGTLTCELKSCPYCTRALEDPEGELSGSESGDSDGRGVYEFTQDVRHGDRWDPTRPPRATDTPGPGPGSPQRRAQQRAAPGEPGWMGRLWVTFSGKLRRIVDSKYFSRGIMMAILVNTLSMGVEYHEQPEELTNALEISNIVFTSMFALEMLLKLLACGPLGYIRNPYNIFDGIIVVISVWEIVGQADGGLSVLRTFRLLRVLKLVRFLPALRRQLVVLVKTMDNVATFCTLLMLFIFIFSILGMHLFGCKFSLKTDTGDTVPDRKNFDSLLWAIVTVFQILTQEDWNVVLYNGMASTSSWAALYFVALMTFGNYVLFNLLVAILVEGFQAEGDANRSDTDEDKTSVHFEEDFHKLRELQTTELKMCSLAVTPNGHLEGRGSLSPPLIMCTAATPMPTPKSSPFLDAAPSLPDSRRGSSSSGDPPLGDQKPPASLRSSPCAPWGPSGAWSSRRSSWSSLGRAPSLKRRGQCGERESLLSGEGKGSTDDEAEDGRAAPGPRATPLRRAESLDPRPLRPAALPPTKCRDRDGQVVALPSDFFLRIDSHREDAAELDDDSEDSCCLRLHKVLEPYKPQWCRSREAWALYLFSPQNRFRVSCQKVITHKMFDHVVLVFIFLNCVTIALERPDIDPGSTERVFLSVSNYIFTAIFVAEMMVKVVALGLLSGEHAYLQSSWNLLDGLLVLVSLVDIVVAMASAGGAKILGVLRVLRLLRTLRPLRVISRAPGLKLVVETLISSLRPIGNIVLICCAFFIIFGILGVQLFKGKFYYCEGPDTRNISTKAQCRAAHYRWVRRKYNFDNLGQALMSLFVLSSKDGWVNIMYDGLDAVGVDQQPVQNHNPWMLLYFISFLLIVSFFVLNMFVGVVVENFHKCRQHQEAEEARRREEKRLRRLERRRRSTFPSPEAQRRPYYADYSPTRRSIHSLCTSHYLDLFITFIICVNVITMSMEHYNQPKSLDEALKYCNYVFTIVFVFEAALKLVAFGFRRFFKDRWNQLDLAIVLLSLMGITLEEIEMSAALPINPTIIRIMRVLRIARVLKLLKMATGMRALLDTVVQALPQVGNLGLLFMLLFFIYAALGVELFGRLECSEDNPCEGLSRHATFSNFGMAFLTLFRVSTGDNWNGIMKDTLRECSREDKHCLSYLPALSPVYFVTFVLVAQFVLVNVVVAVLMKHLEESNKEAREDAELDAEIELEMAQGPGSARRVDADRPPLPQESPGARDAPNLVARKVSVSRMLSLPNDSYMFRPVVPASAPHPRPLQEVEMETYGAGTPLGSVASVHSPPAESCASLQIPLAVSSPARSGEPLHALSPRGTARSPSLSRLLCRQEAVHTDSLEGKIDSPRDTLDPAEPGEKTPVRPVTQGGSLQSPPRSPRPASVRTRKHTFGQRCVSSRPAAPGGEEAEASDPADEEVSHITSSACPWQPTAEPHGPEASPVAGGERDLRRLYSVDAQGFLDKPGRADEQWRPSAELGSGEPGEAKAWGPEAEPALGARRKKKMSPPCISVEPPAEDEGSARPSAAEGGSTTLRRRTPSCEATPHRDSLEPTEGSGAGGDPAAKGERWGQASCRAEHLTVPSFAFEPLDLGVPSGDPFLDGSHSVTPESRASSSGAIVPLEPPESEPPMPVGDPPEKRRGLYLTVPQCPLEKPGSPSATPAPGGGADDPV

Row | SMILES | IC50 [1] [µM] | IC50 [2] [µM] | other results
1 | O=C(c1ccc(OCCCN2CCOCC2)cc1)N1c2ccccc2Oc2ccccc21 | 133 |  | 
2 | CN(C)CCCOc1ccc(C(=O)Nc2ccccc2Oc2ccccc2)cc1 | 19 | 49 | 
3 | CN(C)CCCOc1ccc(C(=O)N2c3ccccc3CCc3ccccc32)cc1 |  |  | half-life [3]: > 60 h
4 | O=C(c1ccc(OCCCN2CCOCC2)cc1)N1c2ccccc2C=Cc2ccccc21 | 193 | 259 | 
5 | NC(N)=NCCCOc1ccc(C(=O)N2c3ccccc3Oc3ccccc32)cc1 | 164 |  | 
6 | COCCOC(=O)C1=C(C)NC(C)=C(C(=O)OC/C=C/c2ccccc2)C1c1cccc([N+](=O)[O-])c1 (configuration not stated) [CILNIDIPINE] | 24 | 26 | 
7 | NC(N)=NCCCOc1ccc(C(=O)Nc2ccccc2Oc2ccc(F)cc2)cc1 |  | 185 | IC50 [4]: 34 µM; IC50 [5]: 2 µM
8 | CN(C)CCCOc1ccc(C(=O)N2c3ccccc3C=Cc3ccccc32)cc1 |  |  | half-life [3]: > 60 h
9 | Cc1cccc(C)c1Oc1ccccc1NC(=O)c1ccc(OCCCN(C)C)cc1 | 55 | 62 | 

More lines, main results first:

Row | IC50 [1] [µM] | IC50 [2] [µM] | SMILES | other results
10 | 49 |  | O=C(c1ccc(OCCCN2CCCC2)cc1)N1c2ccccc2Oc2ccccc21 | 
11 | 113 | 107 | O=C(c1ccc(OCCCN2CCCC2)cc1)N1c2ccccc2C=Cc2ccccc21 | 
12 | 110 | 98 | O=C(c1ccc(OCCCN2CCCC2)cc1)N1c2ccccc2CCc2ccccc21 | 
13 | 80 | 78 | O=C(c1ccc(OCCCN2CCOCC2)cc1)N1c2ccccc2CCc2ccccc21 | 
